Source: patent US20240092784A1, “CONDENSED HETEROCYCLIC COMPOUND” (NISSAN CHEMICAL CORPORATION, priority 2020, published 2024)

Biological target: human SPR (Homo sapiens (Human), UniProt P35270)
Assay: Evaluation Example 1: Measurement of human SPR inhibitory activity (sepiapterin absorbance at 420 nm)
Format: biochemical
Conditions: 240 minutes at room temperature
Protocol: Human SPR was prepared as described below. The full-length human SPR (1-261) cDNA was purchased from Eurofins Genomics as an artificially synthesized plasmid containing a DNA sequence optimized for the E. coli expression system so that the sequence of the expressed protein after transcription and translation matches the sequence described in UniprotKB (P35270).
Linearized insert and vector were prepared by PCR using primers designed for amplification of human SPR cDNA and primers designed to contain the thrombin recognition sequence of pET28a (Novagen) and a polyhistidine tag. Cloning was performed using In-Fusion (registered trademark) HD Cloning Kit (TaKaRa) to thereby construct a human SPR expression plasmid. The resultant human SPR expression plasmid was transformed into BL21 (DE3) competent cells (INVITROGEN).
The cells were inoculated into LB medium (1% triptone, 0.5% yeast extract, 1% sodium chloride) containing […] of kanamycin, and then precultured at 37° C. overnight. The precultured cells were inoculated into TB medium (1.2% triptone, 2.4% yeast extract, 9.4% dipotassium hydrogen phosphate, 2.2% potassium dihydrogen phosphate, 0.8% glycerin) containing […] of kanamycin, and the cultured at 37° C., to thereby induce SPR expression with 0.5 mM IPTG for four hours. After the induction, the cells were collected by centrifugation at 6,000 G for 30 minutes and washed with PBS, and the washing was discarded. The washed cells were suspended in buffer solution A (20 mM MES, pH 6.5, 100 mM sodium chloride, 1 mM DTT, 5 mM imidazole). Subsequently, the cell suspension was subjected to ultrasonic treatment to thereby homogenize the cells. The cell homogenate was clarified by centrifugation at 30,000 G for 60 minutes and then filtered with a […]. The filtrate was allowed to pass through HisTrapFF 5 mL column (GE Healthcare). The resin was washed with buffer A, and then gradient elution was performed with buffer B (20 mM MES, pH 6.5, 100 mM sodium chloride, 1 mM DTT, 500 mM imidazole). Thrombin was added to a fraction containing the SPR protein, and the mixture was dialyzed in buffer A overnight, to thereby cleave the tag. After removal of the thrombin by with Benzamidine Sepharose 4 FF (GE Healthcare), the resultant product was allowed to pass through the HisTrapFF 5 mL column, to thereby remove the tag, followed by concentration with Amicon Ultra 10,000 NMWL (Merck Millipore). The concentrate was purified by gel filtration using HiLoad 16/60 Superdex 75 pg (GE Healthcare) equilibrated with buffer C (20 mM MES, pH 6.5, 100 mM sodium chloride, 1 mM DTT). The fraction containing SPR protein was concentrated and then cryopreserved at −80° C.
Human SPR inhibitory activity was measured by using a 384-well low adsorption clear plate (Greiner) with buffer D containing 100 mM Tris-HCl (pH 7.5) (Thermo Fisher Scientific) and 0.01% bovine serum albumin (Sigma). A compound was diluted with DMSO to a concentration of 1 mM, and a 1 μL aliquot of the preparation was diluted with 250 μL of buffer D. The thus-diluted compound was dispensed into the 384-well plate at […]. Thereafter, human SPR was diluted with buffer D to 200 ng/mL and then dispensed into the 384-well plate at 20 μL/well. Subsequently, 40 μL of ultrapure water containing 120 μM Sepiapterin (WuXi AppTec) and 120 μM NADPH (Nacalai) was added to each well, and mixed with a vortex mixer, to thereby initiate the reaction. The reaction mixture was incubated at room temperature for 240 minutes, and the reaction was terminated by addition of 10 μL of ultrapure water containing 2% formic acid (Nacalai). In order to determine the amount of sepiapterin after termination of the reaction, the absorbance at 420 nm was measured by applying the 384-well plate to EnSpire multimode plate reader (Perkin Elmer). The percent inhibition (%) of human SPR by the test compound was calculated by the following formula. […]

human SPR, sequence (P35270 whole entry): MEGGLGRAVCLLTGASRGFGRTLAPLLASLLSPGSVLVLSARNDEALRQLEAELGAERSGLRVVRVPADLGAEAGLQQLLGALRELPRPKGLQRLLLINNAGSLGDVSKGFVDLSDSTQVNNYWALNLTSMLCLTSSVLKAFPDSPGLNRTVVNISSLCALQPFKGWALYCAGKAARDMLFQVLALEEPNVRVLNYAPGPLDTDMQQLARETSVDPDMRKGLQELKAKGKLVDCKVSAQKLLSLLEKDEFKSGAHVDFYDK

SMILES | IC50 [nM]
CC1(Cn2c(=O)c(C(=O)NC3CC3)c(O)n3nc(Nc4cnccn4)cc23)CCOCC1 [Synthesis Example 28, N-Cyclopropyl-7-hydroxy-4-((4-methyltetrahydro-2H-pyran-4-yl)methyl)-5-oxo-2-(pyrazin-2-ylamino)-4,5-dihydropyrazolo[1,5-a]pyrimidine-6-carboxamide] | < 1000
CC1(Cn2c(=O)c(C(=O)NC3CC3)c(O)n3nc(-c4cccnc4N)cc23)CCOCC1 [Synthesis Example 29, 2-(2-Aminopyridin-3-yl)-N-cyclopropyl-7-hydroxy-4-((4-methyltetrahydro-2H-pyran-4-yl)methyl)-5-oxo-4,5-dihydropyrazolo[1,5-a]pyrimidine-6-carboxamide] | < 1000
CC1(Cn2c(=O)c(C(=O)NC3CCC3)c(O)n3nc(Br)cc23)CCOCC1 [Synthesis Example 30, 2-Bromo-N-cyclobutyl-7-hydroxy-4-((4-methyltetrahydro-2H-pyran-4-yl)methyl)-5-oxo-4,5-dihydropyrazolo[1,5-a]pyrimidine-6-carboxamide] | < 1000
CC1(Cn2c(=O)c(C(=O)NC3CCC3)c(O)n3nc(Nc4cnccn4)cc23)CCOCC1 [Synthesis Example 31, N-Cyclobutyl-7-hydroxy-4-((4-methyltetrahydro-2H-pyran-4-yl)methyl)-5-oxo-2-(pyrazin-2-ylamino)-4,5-dihydropyrazolo[1,5-a]pyrimidine-6-carboxamide] | < 1000
O=C(NC1CC1)c1c(O)n2ncc(C3=CCOCC3)c2n(CC2CCOCC2)c1=O [Synthesis Example 35, N-Cyclopropyl-3-(3,6-dihydro-2H-pyran-4-yl)-7-hydroxy-5-oxo-4-((tetrahydro-2H-pyran-4-yl)methyl)-4,5-dihydropyrazolo[1,5-a]pyrimidine-6-carboxamide] | < 1000
CC(C)(C)Cn1c(=O)c(C(=O)NC2CC2)c(O)n2nc(C(=O)Nc3ccccn3)cc12 [Synthesis Example 41, N6-Cyclopropyl-7-hydroxy-4-neopentyl-5-oxo-N2-(pyridin-2-yl)-4,5-dihydropyrazolo[1,5-a]pyrimidine-2,6-dicarboxamide] | < 1000
CC(C)Cn1c(=O)c(C(=O)NC2CC2)c(O)n2ncc(Br)c12 [Synthesis Example 104, 3-Bromo-N-cyclopropyl-7-hydroxy-4-isobutyl-5-oxo-4,5-dihydropyrazolo[1,5-a]pyrimidine-6-carboxamide] | < 1000
O=C(NC1CC1)c1c(O)n2nc(C3CC3)cc2n(CC2CCOCC2)c1=O [Synthesis Example 135, N,2-Dicyclopropyl-7-hydroxy-5-oxo-4-((tetrahydro-2H-pyran-4-yl)methyl)-4,5-dihydropyrazolo[1,5-a]pyrimidine-6-carboxamide] | < 1000
CC(C)(C)Cn1c(=O)c(C(=O)NC2CC2)c(O)n2ncc(/C=C/C(=O)N3CCOCC3)c12 [Synthesis Example 169, (E)-N-Cyclopropyl-7-hydroxy-3-(3-morpholino-3-oxoprop-1-en-1-yl)-4-neopentyl-5-oxo-4,5-dihydropyrazolo[1,5-a]pyrimidine-6-carboxamide] | < 1000
COc1ccnc(Nc2cc3n(CC(C)(C)C)c(=O)c(C(=O)NC4CC4)c(O)n3n2)c1 [Synthesis Example 195, N-Cyclopropyl-7-hydroxy-2-((4-methoxypyridin-2-yl)amino)-4-neopentyl-5-oxo-4,5-dihydropyrazolo[1,5-a]pyrimidine-6-carboxamide] | < 1000
